Source: PubChem BioAssay (NCI)
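48-hour exposure; five concentrations; linearly interpolated endpoints. TGI: concentration producing complete growth inhibition.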

Key:
Test in all cases: NCI-60 cell line screen, 48 h
M14 melanoma = tested on: M14 melanoma
ACHN renal = tested on: ACHN renal
DU-145 prostate = tested on: DU-145 prostate
RXF 393 renal = tested on: RXF 393 renal
NCI/ADR-RES ovarian = tested on: NCI/ADR-RES ovarian
OVCAR-8 ovarian = tested on: OVCAR-8 ovarian
HOP-62 NSCLC = tested on: HOP-62 NSCLC
CCRF-CEM leukemia = tested on: CCRF-CEM leukemia
A498 renal = tested on: A498 renal
SK-OV-3 ovarian = tested on: SK-OV-3 ovarian
MDA-N = tested on: MDA-N
K-562 leukemia = tested on: K-562 leukemia
UACC-62 melanoma = tested on: UACC-62 melanoma
SF-268 CNS = tested on: SF-268 CNS
MCF7 breast = tested on: MCF7 breast
COLO 205 colon = tested on: COLO 205 colon
RPMI-8226 leukemia = tested on: RPMI-8226 leukemia
HT29 colon = tested on: HT29 colon
SNB-19 CNS = tested on: SNB-19 CNS
HCT-15 colon = tested on: HCT-15 colon
HL-60(TB) leukemia = tested on: HL-60(TB) leukemia
LOX IMVI melanoma = tested on: LOX IMVI melanoma
U251 CNS = tested on: U251 CNS
PC-3 prostate = tested on: PC-3 prostate
TK-10 renal = tested on: TK-10 renal
SK-MEL-28 melanoma = tested on: SK-MEL-28 melanoma
SW-620 colon = tested on: SW-620 colon
SK-MEL-2 melanoma = tested on: SK-MEL-2 melanoma
CAKI-1 renal = tested on: CAKI-1 renal
NCI-H23 lung = tested on: NCI-H23 lung
MOLT-4 leukemia = tested on: MOLT-4 leukemia
MDA-MB-231 breast = tested on: MDA-MB-231 breast
NCI-H522 lung = tested on: NCI-H522 lung
SNB-75 CNS = tested on: SNB-75 CNS
MDA-MB-435 = tested on: MDA-MB-435
SN12C renal = tested on: SN12C renal
HCT-116 colon = tested on: HCT-116 colon
SK-MEL-5 melanoma = tested on: SK-MEL-5 melanoma
SR leukemia = tested on: SR leukemia
BT-549 breast = tested on: BT-549 breast
NCI-H226 lung = tested on: NCI-H226 lung
OVCAR-4 ovarian = tested on: OVCAR-4 ovarian
T-47D breast = tested on: T-47D breast
786-0 renal = tested on: 786-0 renal
NCI-H460 lung = tested on: NCI-H460 lung
HCC-2998 colon = tested on: HCC-2998 colon
UACC-257 melanoma = tested on: UACC-257 melanoma
SF-295 CNS = tested on: SF-295 CNS
EKVX NSCLC = tested on: EKVX NSCLC
KM12 colon = tested on: KM12 colon
UO-31 renal = tested on: UO-31 renal
HOP-92 NSCLC = tested on: HOP-92 NSCLC
A549 NSCLC = tested on: A549 NSCLC
IGROV1 ovarian = tested on: IGROV1 ovarian
HS 578T breast = tested on: HS 578T breast
OVCAR-5 ovarian = tested on: OVCAR-5 ovarian
SF-539 CNS = tested on: SF-539 CNS
MALME-3M melanoma = tested on: MALME-3M melanoma
OVCAR-3 ovarian = tested on: OVCAR-3 ovarian

Cc1nc2c(-c3ccccc3)[nH]c(C)c2c(=O)o1
TGI (M14 melanoma): > 100 µM | TGI (ACHN renal): > 100 µM | TGI (DU-145 prostate): > 100 µM | TGI (RXF 393 renal): > 100 µM | TGI (NCI/ADR-RES ovarian): > 100 µM | TGI (OVCAR-8 ovarian): > 100 µM | TGI (HOP-62 NSCLC): > 100 µM | TGI (CCRF-CEM leukemia): > 100 µM | TGI (A498 renal): > 100 µM | TGI (SK-OV-3 ovarian): > 100 µM | TGI (MDA-N): > 100 µM | TGI (K-562 leukemia): > 100 µM | TGI (UACC-62 melanoma): > 100 µM | TGI (SF-268 CNS): > 100 µM | TGI (MCF7 breast): 37.7 µM | TGI (COLO 205 colon): > 100 µM | TGI (RPMI-8226 leukemia): > 100 µM | TGI (HT29 colon): > 100 µM | TGI (SNB-19 CNS): > 100 µM | TGI (HCT-15 colon): > 100 µM | TGI (HL-60(TB) leukemia): > 100 µM | TGI (LOX IMVI melanoma): > 100 µM | TGI (U251 CNS): > 100 µM | TGI (PC-3 prostate): > 100 µM | TGI (TK-10 renal): > 100 µM | TGI (SK-MEL-28 melanoma): > 100 µM | TGI (SW-620 colon): > 100 µM | TGI (SK-MEL-2 melanoma): > 100 µM | TGI (CAKI-1 renal): > 100 µM | TGI (NCI-H23 lung): > 100 µM | TGI (MOLT-4 leukemia): > 100 µM | TGI (MDA-MB-231 breast): > 100 µM | TGI (NCI-H522 lung): > 100 µM | TGI (SNB-75 CNS): > 100 µM | TGI (MDA-MB-435): > 100 µM | TGI (SN12C renal): > 100 µM | TGI (HCT-116 colon): > 100 µM | TGI (SK-MEL-5 melanoma): > 100 µM | TGI (SR leukemia): > 100 µM | TGI (BT-549 breast): > 100 µM | TGI (NCI-H226 lung): > 100 µM | TGI (OVCAR-4 ovarian): > 100 µM | TGI (T-47D breast): > 100 µM | TGI (786-0 renal): > 100 µM | TGI (NCI-H460 lung): > 100 µM | TGI (HCC-2998 colon): > 100 µM | TGI (UACC-257 melanoma): > 100 µM | TGI (SF-295 CNS): > 100 µM | TGI (EKVX NSCLC): > 100 µM | TGI (KM12 colon): > 100 µM | TGI (UO-31 renal): > 100 µM | TGI (HOP-92 NSCLC): > 100 µM | TGI (A549 NSCLC): > 100 µM | TGI (IGROV1 ovarian): > 100 µM | TGI (HS 578T breast): > 100 µM | TGI (OVCAR-5 ovarian): > 100 µM | TGI (SF-539 CNS): > 100 µM

Cc1cn(C2CC(N=[N+]=[N-])C(CO[Si](C)(C)C(C)(C)C)O2)c(=O)[nH]c1=O (stereo not drawn)
TGI (M14 melanoma): 41.5 µM | TGI (ACHN renal): 48 µM | TGI (DU-145 prostate): 45.1 µM | TGI (RXF 393 renal): 32.3 µM | TGI (NCI/ADR-RES ovarian): 36 µM | TGI (MALME-3M melanoma): 28.1 µM | TGI (OVCAR-8 ovarian): 37.1 µM | TGI (HOP-62 NSCLC): 34.1 µM | TGI (CCRF-CEM leukemia): 60.9 µM | TGI (A498 renal): 30.7 µM | TGI (SK-OV-3 ovarian): 37.1 µM | TGI (MDA-N): 34.2 µM | TGI (K-562 leukemia): 47.6 µM | TGI (UACC-62 melanoma): 29.8 µM | TGI (SF-268 CNS): 45.8 µM | TGI (MCF7 breast): 58 µM | TGI (COLO 205 colon): 35.6 µM | TGI (RPMI-8226 leukemia): 47.1 µM | TGI (OVCAR-3 ovarian): 34.9 µM | TGI (HT29 colon): 32.4 µM | TGI (SNB-19 CNS): 38.3 µM | TGI (HCT-15 colon): 37.9 µM | TGI (HL-60(TB) leukemia): 72.4 µM | TGI (LOX IMVI melanoma): 31.5 µM | TGI (U251 CNS): 33 µM | TGI (PC-3 prostate): 38.9 µM | TGI (TK-10 renal): 30.5 µM | TGI (SW-620 colon): 35.7 µM | TGI (SK-MEL-2 melanoma): 33.8 µM | TGI (CAKI-1 renal): 37.1 µM | TGI (NCI-H23 lung): 40.2 µM | TGI (MOLT-4 leukemia): > 100 µM | TGI (MDA-MB-231 breast): 29.5 µM | TGI (NCI-H522 lung): 35.6 µM | TGI (SNB-75 CNS): 42.9 µM | TGI (MDA-MB-435): 38.2 µM | TGI (SN12C renal): 30.4 µM | TGI (HCT-116 colon): 29.6 µM | TGI (SK-MEL-5 melanoma): 32.4 µM | TGI (SR leukemia): 56.8 µM | TGI (BT-549 breast): 23.7 µM | TGI (NCI-H226 lung): 29.6 µM | TGI (OVCAR-4 ovarian): 28.1 µM | TGI (T-47D breast): 75.6 µM | TGI (786-0 renal): 29.1 µM | TGI (HCC-2998 colon): 26.5 µM | TGI (UACC-257 melanoma): 42 µM | TGI (SF-295 CNS): 34.6 µM | TGI (EKVX NSCLC): 58.1 µM | TGI (KM12 colon): 32.5 µM | TGI (UO-31 renal): 30.7 µM | TGI (A549 NSCLC): 87.8 µM | TGI (IGROV1 ovarian): 37.3 µM | TGI (HS 578T breast): 40.1 µM | TGI (OVCAR-5 ovarian): 49.1 µM | TGI (SF-539 CNS): 35.6 µM
